Experimental findings from PubChem BioAssay (NCI) are described below.

Holding throughout (assay): NCI tumour cell line growth inhibition, 48 h
Assay [1] deals with A549 NSCLC.
Assay [2] deals with CCRF-CEM leukemia.
Assay [3] has as its system HCT-116 colon.
Assay [4] concerns LOX IMVI melanoma.
In assay [5] the test system is MALME-3M melanoma.
For assay [6], the system named is NCI-H23 lung.
Assay [7] has as its system RXF 393 renal.
For assay [8], the system named is SF-295 CNS.
Assay [9] deals with SR leukemia.
The subject of assay [10] is U251 CNS.

Each structure is given as a SMILES string.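 How tested: cells in 96-well plates exposed to compound for 48 hours at five concentrations. Abbreviation: GI50, concentration required for 50% inhibition of growth. At the TGI there is no net growth.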 Where only a bound is given, the exact number is not on record here.

Consider `COc1cc(-c2ccc(-[n+]3nc(-c4ccc([N+](=O)[O-])cc4)nn3-c3ccc([N+](=O)[O-])cc3)c(OC)c2)ccc1-[n+]1nc(-c2ccc([N+](=O)[O-])cc2)nn1-c1ccc([N+](=O)[O-])cc1`, for which the GI50 was 3.46 µM in [1]; 1.08 µM in assay [2]; 3.38 µM in assay [3]; 0.347 µM in assay [4]; 1.89 µM in assay [5]; 3.76 µM in [6]. Moreover, the GI50 in assay [7] is 2.25 µM; in [8] it was 3.07 µM; in assay [9], 30.4 µM; in assay [10], 10.8 µM. For the same compound, the TGI is 31.2 µM in [1]; more than 100 µM in assay [2]; more than 31.6 µM in assay [3]; 10.1 µM in assay [4]; 4.47 µM in assay [5]; 47.1 µM in [6]. The TGI in assay [7] is 6.08 µM; in assay [8], 16.1 µM; in [9], more than 100 µM; in [10] it was 38.7 µM.
Consider `COc1cc(/C=C2\C[C@H]3[C@@H]4CC=C5C[C@@H](OC(C)=O)CC[C@]5(C)[C@H]4CC[C@]3(C)[C@H]2OC(C)=O)ccc1OCCCn1ccnc1`, for which the GI50 in assay [1] was 8.45 µM; in assay [2], 11.3 µM; in [3], 7.78 µM; in assay [4], 7.46 µM; in assay [6], 9.94 µM; in assay [7] it was 1.78 µM. In addition, the GI50 in [8] is 4.77 µM; in assay [9] it was 8.2 µM; in assay [10], 6.28 µM. In addition, the TGI in assay [1] is 20.4 µM; in assay [2] it was 40.9 µM; in assay [3] it was 17.2 µM; in assay [4], 14.9 µM; in assay [6], 21.1 µM; in assay [7], 10.4 µM. The TGI stood at 12.4 µM in [8], 36.3 µM in assay [9] and 12.7 µM in assay [10].
Turning to `Cc1cccc(Oc2ccc(Nc3ncnc4ccc(NC(=O)CN5CCN(C)CC5)cc34)cc2Cl)c1`, the GI50 in assay [2] is 2.06 µM; in assay [4] it was 1.7 µM; in [5] it was 1.59 µM; in assay [6], 1.74 µM; in assay [7], 1.61 µM; in [8], 1.83 µM. Moreover, in assay [9], the GI50 is 1.72 µM. Besides, the TGI in [2] came to 5.21 µM; in [4] it was 3.18 µM; in assay [5] it was 3.16 µM; in assay [6], 3.49 µM; in assay [7], 3.09 µM; in [8], 3.39 µM. This compound registered a TGI in assay [9] of 5.32 µM.
As for `O=c1[nH]cnc2c1nnn2[C@@H]1O[C@H](CO)[C@@H](O)[C@H]1O`, the GI50 in assay [1] is 27.5 µM; in assay [2] it was 1.34 µM; in [3], 3.93 µM; in assay [4], 2.14 µM; in assay [6] it was 6.65 µM; in [7], 4.31 µM. Moreover, the GI50 was 4.77 µM in assay [9] and 25.8 µM in assay [10]. For the same compound, the TGI in [1], in assay [2], in assay [3], in [4], in [6] and in assay [7] was more than 100 µM throughout. For the same compound, the TGI in assay [9] and in assay [10] was more than 100 µM each time.
In the case of `CCC[CH2][Sn]([CH2]CCC)([O]C(=O)c1cccc(F)c1F)[O][Sn]([CH2]CCC)([CH2]CCC)[O]C(=O)c1cccc(F)c1F`, the GI50 was 1.78 µM in assay [1]; 0.257 µM in assay [3]; 0.111 µM in assay [4]; 0.118 µM in assay [5]; 0.0557 µM in assay [6]; 0.0216 µM in [7]. For the same compound, the results for the GI50 in assay [8], in assay [9] and in assay [10] were 0.919 µM, 0.0771 µM and 0.147 µM, respectively. The TGI in [1] worked out at 3.44 µM; in assay [3] it was 0.848 µM; in assay [4] it was 0.25 µM; in [5] it was 0.284 µM; in [6], 0.272 µM; in [7], 0.105 µM. Besides, the TGI in assay [8] came out at 2.19 µM; in assay [10], 0.449 µM.
Regarding `c1cncc(-c2cc(-c3cc(-c4cccnc4)n[nH]3)[nH]n2)c1`, the TGI in assay [1], in [3], in assay [4], in assay [5], in assay [6] and in assay [7] was more than 100 µM each time. Besides, the TGI in assay [8], in [9] and in assay [10] was more than 100 µM each time.
On to `N#Cc1c(SCc2ccccc2)nc2[nH]c(=S)[nH]c(=S)c2c1-c1ccco1`, for which the GI50 is 64.1 µM in [1]; 21.6 µM in assay [3]; more than 100 µM in [4]; 28 µM in assay [6]; 37.9 µM in assay [7]; 43.5 µM in assay [8]. The GI50 in assay [9] is 19.1 µM; in [10] it was more than 100 µM. In addition, the TGI in assay [1], in assay [3], in [4], in assay [6], in assay [7] and in [8] was more than 100 µM throughout. The TGI in assay [9] and in assay [10] was more than 100 µM in each case.
With `Cc1cc(Nc2nc(N3CCOCC3)nc3ccccc23)n[nH]1`, the GI50 is 5.2 µM in assay [1]; 4.03 µM in assay [2]; 3.64 µM in assay [3]; 4.35 µM in assay [4]; 44.2 µM in [5]; 1.35 µM in assay [7]. The GI50 in [8] is 6.19 µM; in assay [9], 3.65 µM; in [10], 4.83 µM. The TGI in assay [1] was more than 100 µM; in assay [2], more than 100 µM; in assay [3], 27 µM; in assay [4] it was 21.2 µM; in [5], more than 100 µM; in assay [7], 6.17 µM. In addition, the values for the TGI in [8], in [9] and in assay [10] were 74.4 µM, 28.1 µM and 21.6 µM, respectively.
As to `CC(=O)O[C@H]1C(=O)[C@@]2(C)[C@H]([C@H](OC(=O)c3ccccc3)[C@]3(O)C[C@H](OC(=O)[C@H](OC(=O)CCC(=O)OC4CCC(S/N=C(N)/N=C(\N)N(C)C)CC4)[C@@H](NC(=O)c4ccccc4)c4ccccc4)C(C)=C1C3(C)C)[C@]1(OC(C)=O)CO[C@@H]1C[C@@H]2O` (stereo partly specified), the GI50 in [1] was 0.0084 µM; in assay [2], 0.0155 µM; in [3], less than 0.005 µM; in assay [4] it was 0.00748 µM; in assay [6], 0.0166 µM; in [7], 0.0135 µM. Further, the values for the GI50 in assay [8], in assay [9] and in assay [10] were 0.0116 µM, 0.00631 µM and 0.00815 µM, respectively. In addition, the TGI in assay [1], in assay [2], in [3], in assay [4], in assay [6] and in assay [7] was more than 50 µM each time. Also, the TGI in [8] was 0.0818 µM; in assay [9], more than 50 µM; in assay [10] it was more than 50 µM.
